Test system: Her2
Experiment: IC50 range for inhibition of Her2 degradation (Table 8)
Assay type: cell-based
Conditions: Homo sapiens
Method: Human high-Her2 breast carcinoma BT474 (HTB-20), SK-BR-3 (HTB-30) and MCF-7 breast carcinoma (HTB-22) from American Type Culture Collection, VA, USA were grown in Dulbecco's modified Eagle's medium with 4 mM L-glutamine and antibiotics (100 IU/ml penicillin and 100 ug/ml streptomycine; GibcoBRL). To obtain exponential cell growth, cells were trypsinized, counted and seeded at a cell density of 0.5×10^6 cells/ml regularly, every 3 days. All experiments were performed on day 1 after cell passage. […]
After treatment with a compound of the invention, cells were washed twice with 1×PBS/1% FBS, and then stained with anti-Her2-FITC (#340553, BD) for 30 min at 4° C. Cells were then washed three times in FACS buffer before the fixation in 0.5 ml 1% paraformadehydrede. Data was acquired on a FACSCalibur system. Isotype-matched controls were used to establish the non-specific staining of samples and to set the fluorescent markers. A total 10,000 events were recorded from each sample. Data were analysed by using CellQuest software (BD Biosciences).

Compound	IC50 [µM]
Cc1ccc(-n2c(S)nnc2-c2ccc(O)cc2O)c(C)c1 [Compound 28, 3-(2,4-Dihydroxyphenyl)-4-(2,4-dimethyl-phenyl)-5-mercapto-triazole]	3 to 10
Oc1ccc(-c2nnc(S)n2-c2cccc3cnccc23)c(O)c1 [Compound 70, 3-(2,4-Dihydroxy-phenyl)-4-(isoquinolin-5-yl)-5-mercapto-triazole]	3 to 10
Oc1ccc(-c2nnc(S)n2-c2ccc(O)c3ccccc23)c(O)c1 [Compound 87, 3-(2,4-Dihydroxyphenyl)-4-(4-hydroxy-naphthalen-1-yl)-5-mercapto-triazole]	< 3
CC(C)n1ccc2c(-n3c(S)nnc3-c3ccc(O)cc3O)cccc21 [Compound 88, 3-(2,4-Dihydroxyphenyl)-4-(1-isopropyl-indol-4-yl)-5-mercapto-triazole]	< 3
CCn1ccc2c(-n3c(S)nnc3-c3ccc(O)cc3O)cccc21 [Compound 13, 3-(2,4-Dihydroxyphenyl)-4-(1-ethyl-indol-4-yl)-5-mercapto-triazole]	< 3
Cc1cccc(-n2c(S)nnc2-c2ccc(O)cc2O)c1C [Compound 34, 3-(2,4-Dihydroxyphenyl)-4-(2,3-dimethylphenyl)-5-mercapto-triazole]	3 to 10
COCCOc1ccc(-n2c(S)nnc2-c2ccc(O)cc2O)c2ccccc12 [Compound 2, 3-(2,4-Dihydroxyphenyl)-4-[4-(2-methoxyethoxy)-naphthalen-1-yl]-5-mercapto-triazole]	3 to 10
COc1cccc(-n2c(S)nnc2-c2ccc(O)cc2O)c1OC [Compound 93, 3-(2,4-Dihydroxy-phenyl)-4-(2,3-dimethoxy-phenyl)-5-mercapto-triazole]	3 to 10
CC(C)Oc1ccc2c(-n3c(S)nnc3-c3ccc(O)cc3O)cccc2c1 [Compound 9]	3 to 10
CC(=O)Oc1ccc(-c2nnc(SC(C)=O)n2-c2cccc3ccccc23)c(OC(C)=O)c1 [Compound 122, 3-(2,4-Diacetoxy-phenyl)-4-(naphthalen-1-yl)-5-(acetylsulfanyl)-triazole]	3 to 10
COc1ccc(-n2c(S)nnc2-c2ccc(O)cc2O)cc1 [Compound 22, 3-(2,4-Dihydroxyphenyl)-4-(4-methoxyphenyl)-5-mercapto-triazole]	10 to 100
Oc1ccc(-c2nnc(S)n2-c2ccc3c4c(cccc24)CC3)c(O)c1 [Compound 36, 3-(2,4-Dihydroxyphenyl)-4-(acenaphthalen-5-yl)-5-mercapto-triazole]	3 to 10
CCc1cc(-c2nnc(S)n2-c2cccc3c(OC)cccc23)c(O)cc1O [Compound 8, 3-(2,4-Dihydroxy-5-ethyl-phenyl)-4-(5-methoxy-naphthalen-1-yl)-5-mercapto-triazole]	< 3
Oc1ccc(-c2nnc(S)n2-c2cccc3c2OCCO3)c(O)c1 [Compound 14, 3-(2,4-Dihydroxyphenyl)-4-(2,3-dihydro-benzo[1,4]dioxin-5-yl)-5-mercapto-triazole]	3 to 10
[O-][n+]1ccc(-c2nnc(S)n2-c2cccc3ccccc23)c(O)c1 [Compound 98, 3-(1-Oxo-3-hydroxy-pyridin-4-yl)-4-(naphthalen-1-yl)-5-mercapto-triazole]	10 to 100
CCc1cc(-c2nnc(S)n2-c2ccc(OC)c(C)c2C)c(O)cc1O [Compound 79, 3-(2,4-Dihydroxy-5-ethyl-phenyl)-4-(2,3-dimethy-4-methoxy-phenyl)-5-mercapto-triazole]	< 3
Oc1ccc(-c2nnc(S)n2-c2cccc3c2CCCC3)c(O)c1 [Compound 42, 3-(2,4-Dihydroxyphenyl)-4-(1,2,3,4-tetrahydronaphthalen-5-yl)-5-mercapto-triazole]	3 to 10
CCc1cc(-c2nnc(S)n2-c2cccc3cc(OC)ccc23)c(O)cc1O [Compound 77, 3-(2,4-Dihydroxy-5-ethyl-phenyl)-4-(6-methoxy-naphthalin-1-yl)-5-mercapto-triazole]	< 3
COc1cccc2c(-n3c(S)nnc3-c3ccc(O)cc3O)cccc12 [Compound 39, 3-(2,4-Dihydroxyphenyl)-4-(5-methoxynaphthalen-1-yl)-5-mercapto-triazole]	< 3
COCCn1ccc2c(-n3c(S)nnc3-c3ccc(O)cc3O)cccc21 [Compound 96]	< 3
CCOc1ccc2c(-n3c(S)nnc3-c3ccc(O)cc3O)cccc2c1 [Compound 6]	3 to 10
Cc1cc(-n2c(S)nnc2-c2ccc(O)cc2O)c2ccccc2n1 [Compound 51, 3-(2,4-Dihydroxyphenyl)-4-(2-methyl-quinolin-4-yl)-5-mercapto-triazole]	10 to 100
Cc1cc(-c2nnc(S)n2-c2cccc3ccccc23)c(O)cc1O [Compound 63, 3-(2,4-Dihydroxy-5-methyl-phenyl)-4-(naphthalene-1-yl)-5-mercapto-triazole]	< 3
CCc1cc(-c2nnc(S)n2-c2ccc(OC)c3c2ccn3C(C)C)c(O)cc1O [Compound 188, 3-(2,4-Dihydroxy-5-ethyl-phenyl)-4-(1-isopropyl-7-methoxy-indol-4-yl)-5-mercapto-[1,2,4]triazole]	< 3
Cc1cc(C)cc(-n2c(S)nnc2-c2ccc(O)cc2O)c1 [Compound 30]	10 to 100
COc1cccc(-n2c(S)nnc2-c2ccc(O)cc2O)c1 [Compound 21, 3-(2,4-Dihydroxyphenyl)-4-(3-methoxyphenyl)-5-mercapto-triazole]	10 to 100
CC(=O)Oc1ccc(-c2nnc(S)n2-c2cccc3ccccc23)c(OC(C)=O)c1 [Compound 123, 3-(2,4-Diacetoxy-phenyl)-4-(naphthalen-1-yl)-5-mercapto-triazole]	10 to 100
O=C(c1ccccc1)c1cccc(-n2c(S)nnc2-c2ccc(O)cc2O)c1 [Compound 64, 3-[2,4-Dihydroxy-phenyl]-4-(3-benzoylphenyl)-5-mercapto-triazole]	3 to 10
CCn1cc(-c2nnc(S)n2-c2cccc3ccccc23)c(O)cc1=O [Compound 59, 3-(1-ethyl-4-hydroxy-6-oxo-1,6-dihydro-pyridin-3-yl)-4-(naphthalen-1-yl)-5-mercapto-triazole]	10 to 100

Results, then the compound that gave them:

IC50 [µM]	Compound
< 3	CCc1cc(-c2nnc(S)n2-c2ccc3[nH]c(C)c(C)c3c2)c(O)cc1O [Compound 185, 3-(2,4-Dihydroxy-5-ethyl-phenyl)-4-(2,3-dimethyl-indol-5-yl)-5-mercapto-triazole]
3 to 10	Oc1cc(O)c(-c2nnc(S)n2-c2cccc3ccccc23)cc1O [Compound 184, 3-(2,4,5-Trihydroxy-phenyl)-4-(naphthalene-1-yl)-5-mercapto-triazole]
10 to 100	OCc1cc(O)c(-c2nnc(S)n2-c2cccc3ccccc23)cc1O [Compound 104, 3-(2,5-Dihydroxy-4-hydroxymethyl-phenyl)-4-(naphthalen-1-yl)-5-mercapto-triazole]
< 3	CCc1cc(-c2nnc(S)n2-c2ccc(OC)c(N(C)CC)c2)c(O)cc1O [Compound 250, 4-(4-(3-(N-ethyl-N-methylamino)-4-methoxyphenyl)-5-mercapto-4H-1,2,4-triazol-3-yl)-6-ethylbenzene-1,3-diol]
< 3	CCc1cc(-c2nnc(S)n2-c2cccc3c2ccn3C(C)C)c(O)cc1O [Compound 100, 3-(2,4-Dihydroxy-5-ethyl-phenyl)-4-(1-isopropyl-indol-4-yl)-5-mercapto-triazole]
10 to 100	CCc1cc(-c2nnc(S)n2-c2cccc3c2ncn3CC)c(O)cc1O [Compound 102, 3-(2,4-Dihydroxy-5-ethyl-phenyl)-4-(1-ethyl-benzoimidazol-4-yl)-5-mercapto-triazole]
< 3	CCCN(c1cc(-n2c(S)nnc2-c2cc(CC)c(O)cc2O)ccc1OC)C(C)C [Compound 248, 4-(4-(3-(N-isopropyl-N-propylamino)-4-methoxyphenyl)-5-mercapto-4H-1,2,4-triazol-3-yl)-6-ethylbenzene-1,3-diol]
< 3	CCc1cc(-c2nnc(S)n2-c2ccc(N(C)C)c(OC)c2)c(O)cc1O [Compound 259, 4-(4-(4-(dimethylamino)-3-methoxyphenyl)-5-mercapto-4H-1,2,4-triazol-3-yl)-6-ethylbenzene-1,3-diol]
10 to 100	CCc1cc(-c2nnc(S)n2-c2ccc(OC)c(C(C)(C)C)c2)c(O)cc1O [Compound 186, 3-(2,4-Dihydroxy-5-ethyl-phenyl)-4-(3-t-butyl-4-methoxy-phenyl)-5-mercapto-triazole]
< 3	CCc1cc(-c2nnc(S)n2-c2cccc3c(O)cccc23)c(O)cc1O [Compound 178, 3-(2,4-Dihydroxy-5-ethyl-phenyl)-4-(5-hydroxy-naphthalen-1-yl)-5-mercapto-triazole]
< 3	CCc1cc(-c2nnc(S)n2-c2ccc(OC)c(N(C)C)c2)c(O)cc1O [Compound 251, 4-(4-(3-(dimethylamino)-4-methoxyphenyl)-5-mercapto-4H-1,2,4-triazol-3-yl)-6-ethylbenzene-1,3-diol]
10 to 100	Cc1ccc(CO)cc1-n1c(S)nnc1-c1ccc(O)cc1O [Compound 182, 3-(2,4-Dihydroxy-phenyl)-4-(2-methyl-5-hydroxymethyl-phenyl)-5-mercapto-triazole]
10 to 100	Oc1ccc(-c2nnc(S)n2-c2cccc(-c3ccccc3)c2)c(O)c1 [Compound 181, 3-(2,4-Dihydroxy-phenyl)-4-(biphenyl-3-yl)-5-mercapto-triazole]
< 3	CCc1cc(-c2nnc(S)n2-c2ccc(OC)c(N(C)C(C)C)c2)c(O)cc1O [Compound 249, 4-(4-(3-(N-isopropyl-N-methylamino)-4-methoxyphenyl)-5-mercapto-4H-1,2,4-triazol-3-yl)-6-ethylbenzene-1,3-diol]

Reference: patent publication US20080004276A1, “Method for treating non-hodgkin's lymphoma” (priority 2006, published 2008)
